Data from PubChem BioAssay (NCI).
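Interpolation was linear, between the two tested concentrations surrounding the appropriate level; five concentrations were tested over 48 hours in 96-well plates. GI50: concentration for 50% inhibition of growth. TGI: total growth inhibition.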

Experiments:
Test in all cases: NCI-60 cell line screen, 48 h
T-47D breast = tested on: T-47D breast
SN12C renal = tested on: SN12C renal
HL-60(TB) leukemia = tested on: HL-60(TB) leukemia
IGROV1 ovarian = tested on: IGROV1 ovarian
SK-MEL-5 melanoma = tested on: SK-MEL-5 melanoma
MOLT-4 leukemia = tested on: MOLT-4 leukemia
RXF 393 renal = tested on: RXF 393 renal
UO-31 renal = tested on: UO-31 renal
M14 melanoma = tested on: M14 melanoma
786-0 renal = tested on: 786-0 renal
CAKI-1 renal = tested on: CAKI-1 renal
BT-549 breast = tested on: BT-549 breast
U251 CNS = tested on: U251 CNS
MDA-MB-231 breast = tested on: MDA-MB-231 breast
SF-268 CNS = tested on: SF-268 CNS
DU-145 prostate = tested on: DU-145 prostate
MCF7 breast = tested on: MCF7 breast
OVCAR-8 ovarian = tested on: OVCAR-8 ovarian
SK-MEL-2 melanoma = tested on: SK-MEL-2 melanoma
A498 renal = tested on: A498 renal
OVCAR-5 ovarian = tested on: OVCAR-5 ovarian
SF-539 CNS = tested on: SF-539 CNS
MALME-3M melanoma = tested on: MALME-3M melanoma
COLO 205 colon = tested on: COLO 205 colon
HCT-15 colon = tested on: HCT-15 colon
OVCAR-3 ovarian = tested on: OVCAR-3 ovarian
K-562 leukemia = tested on: K-562 leukemia
HCT-116 colon = tested on: HCT-116 colon
SK-MEL-28 melanoma = tested on: SK-MEL-28 melanoma

Compound: O=C1CCC/C=C\C[C@H]2C=CC(=O)/C2=C/C[C@H](CCc2cccc(C(F)(F)F)c2)O1
- TGI (T-47D breast): 7.12 µM
- GI50 (SN12C renal): 3.66 µM
- TGI (SN12C renal): 12.9 µM
- GI50 (HL-60(TB) leukemia): 2.1 µM
- TGI (HL-60(TB) leukemia): 6.88 µM
- GI50 (IGROV1 ovarian): 3.06 µM
- TGI (IGROV1 ovarian): 9.53 µM
- GI50 (SK-MEL-5 melanoma): 1.69 µM
- TGI (SK-MEL-5 melanoma): 3.09 µM
- GI50 (MOLT-4 leukemia): 2.14 µM
- TGI (MOLT-4 leukemia): 6.26 µM
- GI50 (RXF 393 renal): 1.66 µM
- TGI (RXF 393 renal): 3.08 µM
- GI50 (UO-31 renal): 1.57 µM
- TGI (UO-31 renal): 3 µM
- GI50 (M14 melanoma): 1.76 µM
- TGI (M14 melanoma): 5.32 µM
- GI50 (786-0 renal): 1.99 µM
- TGI (786-0 renal): 3.68 µM
- GI50 (CAKI-1 renal): 4.04 µM
- TGI (CAKI-1 renal): 16 µM
- GI50 (BT-549 breast): 2.57 µM
- TGI (BT-549 breast): 7.99 µM
- GI50 (U251 CNS): 1.26 µM
- TGI (U251 CNS): 2.85 µM
- GI50 (MDA-MB-231 breast): 4.41 µM
- TGI (MDA-MB-231 breast): 18.2 µM
- GI50 (SF-268 CNS): 2.77 µM
- TGI (SF-268 CNS): 8.3 µM
- GI50 (DU-145 prostate): 1.66 µM
- TGI (DU-145 prostate): 4.58 µM
- GI50 (MCF7 breast): 0.287 µM
- TGI (MCF7 breast): 2.58 µM
- GI50 (OVCAR-8 ovarian): 0.495 µM
- TGI (OVCAR-8 ovarian): 5.64 µM
- GI50 (SK-MEL-2 melanoma): 2.06 µM
- TGI (SK-MEL-2 melanoma): 4.94 µM
- GI50 (A498 renal): 1.68 µM
- TGI (A498 renal): 3.22 µM
- GI50 (OVCAR-5 ovarian): 4.05 µM
- TGI (OVCAR-5 ovarian): 11.3 µM
- GI50 (SF-539 CNS): 2.61 µM
- TGI (SF-539 CNS): 6.81 µM
- GI50 (MALME-3M melanoma): 2.25 µM
- TGI (MALME-3M melanoma): 7.1 µM
- GI50 (COLO 205 colon): 1.58 µM
- TGI (COLO 205 colon): 4.16 µM
- GI50 (HCT-15 colon): 1.23 µM
- TGI (HCT-15 colon): 4.07 µM
- GI50 (OVCAR-3 ovarian): 1.46 µM
- TGI (OVCAR-3 ovarian): 3.23 µM
- GI50 (K-562 leukemia): 0.692 µM
- TGI (K-562 leukemia): 6.44 µM
- GI50 (HCT-116 colon): 0.327 µM
- TGI (HCT-116 colon): 1.48 µM
- GI50 (SK-MEL-28 melanoma): 2.56 µM
- TGI (SK-MEL-28 melanoma): 6.75 µM
